Assay results: US8586103B2, “Non-polymeric compositions for controlled drug delivery” (Foresee Pharmaceuticals, LLC, priority 2008, dated 2013)
Where a name gives a salt, the structure may show the parent alone.

Assays:
Assay type in all cases: physicochemical
[1] = Appearance and phase separation of octreotide formulations in SAIB/NMP; details: for appearance when combined with SAIB/NMP solution: octreotide about 6%
Method: A solution of sucrose acetate isobutyrate (SAIB) in N-methyl-2-pyrrolidone (NMP) at a concentration of 80% by weight was prepared by combining 2 g NMP with 8 g SAIB followed by gentle mixing. A clear, low viscosity solution was obtained. Then 60 mg octreotide acetate was dissolved in 100 μL NMP which was combined with 900 μL SAIB solution in NMP (80%) and mixed well to obtain a formulation containing about 6% of octreotide acetate.
Since both SAIB and octreotide acetate were quite soluble in NMP, a clear solution was expected after two solutions in the same solvent (NMP) were mixed. […] Therefore, such a formulation is not suitable for preparation of a stable, single-phase formulation of octreotide in SAIB/NMP solution.
(§1) Octreotide acetate (OCT-Ac), octreotide dodecyl sulfate (OCT-SDS) and octreotide docusate (OCT-DSS) complex powders were dissolved in NMP. Then the solutions containing various salt forms of octreotide were thoroughly mixed with SAIB solution in NMP (90% w/w).
Chunky solid precipitates were observed and an inhomogeneous formulation was obtained as observed in Example 1. This inhomogeneous formulation will block needles and is not suitable for injection. […] This formulation can be prepared immediately prior to administration or suitable for storage for a period of time by adjusting the formulation parameters. […] This formulation may be packaged and stored for a long period of time at room temperature.
Octreotide acetate (OCT-Ac) and octreotide dodecyl sulfate (OCT-SDS) complex powders were dissolved in NMP. Then the solutions containing various salt forms of octreotide were thoroughly mixed with SAIB solution in NMP (90% w/w).
A chunky aggregate was formed at the bottom of the formulation (FIG. 1(a)). This inhomogeneous formulation is clearly not suitable for injection to form a consistent depot system in situ for controlled release.

[2] = Stability of the octreotide in formulations at room temperature over time (HPLC); details: SAIB/NMP formulation
Text: Those peaks were not observed from the formulation at the beginning, indicating the generation of impurities or degradation products of the octreotide. The intensity of these peaks increased with the increase of time, while the peak for octreotide decreases over time. […] Therefore, this type of formulation must be modified to be suitable for controlled release delivery of various bioactive substances.
as §1
After two hours, about 4% of the octreotide was degraded or reacted.

[3] = In vitro release of octreotide from SAIB/NMP formulations; details: PBS 7.4, 37° C., SAIB/NMP formulation, about 6% octreotide
Method: (§2) In another embodiment, the release rate of the compositions of the present invention was determined in vitro. About 0.1 mL of each formulation was injected into 3 mL of releasing buffer (PBS 7.4, containing 0.1% sodium azide) in a 4 mL glass vial. The vials were incubated at 37° C. and sampled at various time points. At each time point, 2 mL of release medium was removed and replaced with 2 mL of fresh release medium. The collected samples were analyzed for bioactive substance concentration and integrity by HPLC using an YMC-Pack ODS-120A column or equivalent. Triplicate samples were used for each formulation.
An aliquot of the suspension was used for the in vitro release. About 0.1 mL of each formulation containing octreotide was injected into 3 mL of releasing buffer (PBS 7.4, containing 0.1% sodium azide) in a 4 mL glass vial. The vials were incubated at 37° C. and sampled at various time points. At each time point, 2 mL of release medium was removed and replaced with 2 mL of fresh release medium. The collected samples were analyzed for peptide concentration and integrity by HPLC using an YMC-Pack ODS-120A column. Triplicate samples were used for each formulation.

[4] = In vitro release of pramipexole from SAIB formulations; details: PBS buffer, 37° C., about 6% PPL in 90% SAIB in NMP
Method: Formulations containing about 6% PPL of different salt forms were prepared by mixing PPL with 90% SAIB solutions in NMP. Injections of roughly 100 mg were made into vials with 3 mL PBS buffer and 0.1% NaN3. Gel-like pellets formed and the vials were placed on a shaker at 37° C. The release of PPL was measured by removing 2 mL of the release media at specified times and replacing it with 2 mL of fresh buffer. The concentration in the release media was determined by reverse phase HPLC.

[5] = Phase behaviour of lysozyme SAIB/NMP pellets in PBS buffer; details: about 6% with 90% SAIB in NMP, shaker at 37° C.
Method: Formulations containing about 6% LYZ and LYZ-DSS (85.2% LYZ) with 90% SAIB in NMP were prepared. Injections of roughly 100 mg were made into vials with 3 mL PBS buffer and 0.1% NaN3. Gel-like pellets were formed at room temperature and put on a shaker at 37° C. […] An improved depot system was achieved the complexation of lysozyme with amphiphilic molecule DSS.

[6] = In vitro release of leuprolide from SAIB/NMP formulations; details: after two weeks; PBS 7.4, 37° C.; SAIB/NMP formulation, about 6% leuprolide
Method: as §2
Formulations were prepared by mixing leuprolide acetate (LA-Ac), leuprolide dodecyl sulfate (LA-SDS), leuprolide docusate (LA-DSS) and leuprolide oleate (LA-OL) complex powders with SAIB solution in NMP (90% w/w).
An aliquot of the suspension was used for the in vitro release. About 0.1 mL of each leuprolide formulation was injected into 3 mL of releasing buffer (PBS 7.4, containing 0.1% sodium azide) in a 4 mL glass vial. The vials were incubated at 37° C. and sampled at various time points. At each time point, 2 mL of release medium was removed and replaced with 2 mL of fresh release medium. The collected samples were analyzed for peptide concentration and integrity by HPLC using an YMC-Pack ODS-120A column. Triplicate samples were used for each formulation.

[7] = In vitro release of doxorubicin from SAIB/NMP formulations; details: for Release (%) of DOX: 24 h, PBS 7.4, 37° C., 6% DOX loading
Method: Formulations were prepared using doxorubicin-HCl (DOX-HCl) and doxorubicin docusate (DOX-DSS) complex powders. Formulations were prepared by mixing DOX-HCL and DOX-DSS with SAIB solution in NMP to achieve 6% DOX loading as shown in Table 6.
An aliquot of the suspension was used for studying the in vitro release of DOX from different formulations. About 0.1 mL of each DOX formulation was injected into 3 mL of releasing buffer (PBS 7.4, containing 0.1% sodium azide) in a 4 mL glass vial. The vials were incubated at 37° C. and sampled at various time points. At each time point, 2 mL of release medium was removed and replaced with 2 mL of fresh release medium. The collected samples were analyzed for peptide concentration and integrity by HPLC using an YMC-Pack ODS-120A column. Triplicate samples were used for each formulation.

[8] = Integrity of GEN-DSS SAIB/NMP pellets in PBS buffer; details: about 6% and 2% GEN-DSS with 90% SAIB in NMP, incubated at 37° C.
Method: Formulations containing about 6% and 2% GEN-DSS with 90% SAIB in NMP were prepared. Injections of roughly 100 mg were made into vials with 3 mL PBS buffer and 0.1% NaN3. Gel-like pellets were formed at room temperature.

For C[C@@H](O)[C@@H]1NC(=O)[C@H](CCCCN)NC(=O)[C@@H](Cc2c[nH]c3ccccc23)NC(=O)[C@H](Cc2ccccc2)NC(=O)[C@@H](NC(=O)[C@H](N)Cc2ccccc2)CSSC[C@@H](C(=O)N[C@H](CO)[C@@H](C)O)NC1=O [OCT-Ac, octreotide acetate], the “appearance on mixing with SAIB solution in NMP” value ([1]; Example 1, about 6% octreotide acetate, SAIB solution in NMP (80%)) was “opaque suspension with chunky aggregates”, the “phase separation on standing” value ([1]; Example 1, room temperature overnight) was “two distinguished phases” and the “phase separation on standing” value ([1]; Example 1, room temperature, within a few hours) was “appearance of phase separation was observed”. The “appearance when combined with SAIB/NMP solution” value ([1]; Example 7, SAIB about 70%) was “phase separation occurred immediately”, the “appearance when combined with SAIB/NMP solution” value ([1]; Example 8, SAIB about 80%) was “phase separation occurred even faster” and the octreotide degraded ([2]; after 5 days) was “More than half”. For the same molecule, the “octreotide degraded or reacted” value ([2]; after two hours) was “about 4%”, the octreotide released ([3]; after two weeks) was “more than 90%” and the octreotide released ([3]; within 24 hours) was “More than 60%”.

In the case of octreotide dodecyl sulfate [OCT-SDS], the “appearance when combined with SAIB/NMP solution” value ([1]; Example 7, SAIB about 70%) is reported as “homogeneous suspension”, the “phase separation after 24 hours” value ([1]; Example 8, SAIB about 80%, room temperature, 24 h) is reported as “no significant phase separation” and the “appearance when combined with SAIB/NMP solution” value ([1]; Example 8, SAIB about 80%) is reported as “homogeneous milky suspension”.

In the case of CCCN[C@H]1CCc2nc(N)sc2C1.Cl [PPL-HCl], the pramipexole released ([4]; after one week) is reported as “about 90%” and the pramipexole released ([4]; within 24 hours) is reported as “More than 60%”.

For Lysozyme Docusate [LYZ-DSS], the “phase behaviour of pellets” value [5] was “remained one phase”.

With leuprolide oleate [LA-OL] the leuprolide released [6] was “almost all”.

In the case of octreotide docusate [OCT-DSS], the “appearance when combined with SAIB/NMP solution” value ([1]; Example 7, SAIB about 70%) is reported as “transparent uniform solution”.

With CCCCC(CC)COC(=O)CC(C(=O)OCC(CC)CCCC)S(=O)(=O)O.COc1cccc2c1C(=O)c1c(O)c3c(c(O)c1C2=O)CC(O)(C(=O)CO)CC3OC1CC(N)C(O)C(C)O1 (centres unmarked) [DOX-DSS, doxorubicin docusate] the “Release (%) of DOX” value [7] was “Less than 8%” and the “reduction of the initial burst release of DOX by complexation with DSS” value ([7]; versus DOX-HCl formulation) was roughly 10 fold.

In the case of CCNC(=O)[C@@H]1CCCN1C(=O)[C@H](CCCNC(=N)N)NC(=O)[C@H](CC(C)C)NC(=O)[C@@H](CC(C)C)NC(=O)[C@H](Cc1ccc(O)cc1)NC(=O)[C@H](CO)NC(=O)[C@H](Cc1c[nH]c2ccccc12)NC(=O)[C@H](Cc1c[nH]cn1)NC(=O)[C@@H]1CCC(=O)N1 [LA-Ac, leuprolide acetate], the leuprolide released [6] is reported as “almost all”.

In the case of COc1cccc2c1C(=O)c1c(O)c3c(c(O)c1C2=O)C[C@@](O)(C(=O)CO)C[C@@H]3O[C@H]1C[C@H](N)[C@H](O)[C@H](C)O1 [DOX-HCl, doxorubicin hydrochloride], the “Release (%) of DOX” value [7] is reported as “More than 70%”.

For Gentamycin Docusate [GEN-DSS], the “behaviour of gel-like pellets” value [8] was “began to disintegrate and fall apart within a few hours”.

In the case of lysozyme [LYZ], the “phase behaviour of pellets” value [5] is reported as “phase separated after one day”.
